Results reported in patent US12533428B2, “Multimodal fluorine-CY3/5/7-DOTA-hapten compositions, diagnostics, fluorescence guided surgery and radioimmunotherapy” (Memorial Sloan Kettering Cancer Center, priority 2019, dated 2026).

Tests used:
[1] = tested on: IMR32luc cells; assay: Cell binding with BsAb, fluorescent microscopy; format: cell-based; conditions: IMR32luc cells incubated with anti-GD2/anti-DOTA BsAb
Protocol: The cell binding of Compound 6 and [^175Lu]-Compound 6 variants was then studied using fluorescent microscopy. IMR32luc cells were incubated with Anti-GD2/Anti-DOTA BsAb, a control anti-DOTA BsAb or no BsAb, followed by incubation with Compound 6 or [^175Lu]-Compound 6 variants. […] Binding was not detected when a control anti-DOTA BsAb was added (FIG. 14) or no BsAb was added (FIG. 15).

[2] = tested on: GD2-expressing IMR32Luc neuroblastoma cells; assay: Cell binding with anti-tumor/anti-DOTA BsAb, FACS; format: cell-based
Protocol: The cell binding activity of [F]Cy3D (Compound 6) was assayed with an anti-tumor/anti-DOTA bispecific antibody (BsAb). To detect binding of Compound 6 to GD2-expressing IMR32Luc neuroblastoma cells using an anti-GD2/anti-DOTA BsAb or a control BsAb (anti-HER2/anti-DOTA), cells were incubated with 1 μg of BsAb or PBS, washed and then incubated with several versions of Compound 6: (1) Compound 6, (2) [^175Lu]Pre-Compound 6 where ^175Lu was added before a mock ^19F isotope exchange, (3) [^19F]Pre-[^175Lu]Compound 6, where a mock ^19F isotope exchange was done before ^175Lu was added, and (4) [^175Lu]-Compound 6 where ^175Lu was directly added to Compound 6 without isotope exchange. Cells were analyzed by FACS or fluorescent microscopy.

[3] = tested on: GPA33-expressing SW1222 colon cancer cells; assay: Binding with anti-GPA33/anti-DOTA BsAb, FACS flow cytometry (MFI); format: cell-based, human
Protocol: Next [^175Lu]-Compound 6 binding to GPA33-expressing SW1222 colon cancer cells was investigated. SW1222 cells were incubated with 25, 2.5 or 0.25 pmol of anti-GPA33/Anti-DOTA BsAb, or a control (anti-GD2/anti-DOTA) BsAb, washed and mixed with 50, 5 or 0.5 pmol of [^175Lu]-Compound 6.

[4] = tested on: SW-1222 tumor; assay: In vivo tumor uptake using 3-step PRIT; set-up: species or system mice; conditions: for Tumor Uptake: SW-1222 tumor-bearing mice pretreated with anti-GPA33/anti-DOTA BsAb and DOTA-dendrimer clearing agent, in %ID/g
Protocol: The in vivo tumor uptake of [F]Cy3D [^177Lu] ([^177Lu]-Compound 6) was analyzed in tumor-bearing (SW-1222) mice.

[5] = In vivo biodistribution and pharmacokinetics in tumor free mice (gamma counter)
Protocol: The in vivo biodistribution and pharmacokinetics of ([^177Lu]-Compound 6) and BnDOTA[^177Lu] was investigated in tumor free mice. See FIGS. 17A-17B and Tables 2 and 3. Mice were dosed with radiolabeled probes at t=0 and sacrificed at various time points. Organs were harvested and activity was counted by gamma counter. Tables 2-3 show the serial biodistribution data for the analyzed organs of Compound 6 and Compound 2, respectively. FIG. 17A overlays the time course in activity in either vital tissues (left panel) or the blood (right panel) between the two probes.

SMILES: CC1(C)C(/C=C/C=C2/N(CCCCCC(=O)Nc3ccc(CC4CN(CC(=O)O)CCN(CC(=O)O)CCN(CC(=O)O)CCN4CC(=O)O)cc3)c3ccc(S(=O)(=O)[O-])cc3C2(C)C)=[N+](CCCCCC(=O)NCC[N+](C)(C)C[B-](F)(F)F)c2ccc(S(=O)(=O)O)cc21 (centres unmarked) [Compound 6, [F]Cy3D]
- Binding to cells (fluorescent microscopy) [1]: did not show binding
- Binding to cells (fluorescence, FACS) ([2]; IMR32Luc cells incubated with 1 μg anti-GD2/anti-DOTA BsAb): shows no fluorescence
- Binding to cells (fluorescence, FACS) ([2]; IMR32Luc cells, negative controls: no BsAb or control BsAb (anti-HER2/anti-DOTA)): no binding

SMILES: CC1(C)C(=CC=CC2=[N+](CCCCCC(=O)NCC[N+](C)(C)C[B-](F)(F)F)c3ccc(S(=O)(=O)[O-])cc3C2(C)C)N(CCCCCC(=O)Nc2ccc(CC3CN(CC(=O)[O-])CCN(CC(=O)[O-])CCN(CC(=O)[O-])CCN3CC(=O)[O-])cc2)c2ccc(S(=O)(=O)[O-])cc21.[175Lu+3] (centres unmarked) [[^175Lu]-Compound 6, [F]Cy3D[^175Lu]]
- Mean fluorescence (MFI) of binding ([3]; SW1222 cells, 25, 2.5 or 0.25 pmol anti-GPA33/anti-DOTA BsAb, 50, 5 or 0.5 pmol probe): proportionate to the amount
- Binding to cells (FACS) ([3]; SW1222 cells, control anti-GD2/anti-DOTA BsAb): no binding

SMILES: CC1(C)C(=CC=CC2=[N+](CCCCCC(=O)NCC[N+](C)(C)C[B-](F)(F)F)c3ccc(S(=O)(=O)[O-])cc3C2(C)C)N(CCCCCC(=O)Nc2ccc(CC3CN(CC(=O)[O-])CCN(CC(=O)[O-])CCN(CC(=O)[O-])CCN3CC(=O)[O-])cc2)c2ccc(S(=O)(=O)[O-])cc21.[177Lu+3] (centres unmarked) [[^177Lu]-Compound 6, [F]Cy3D[^177Lu]]
- Tumor Uptake ([4]; 1 h): 25.24 ± 4.49
- Tumor Uptake ([4]; 4 h): 21.93 ± 2.25
- Tumor Uptake ([4]; 24 h): 23.17 ± 4.83
- Tumor Uptake ([4]; 48 h): 22.13 ± 5.37
- Binding to BsAb-treated tumor in vivo compared to the standard BnDOTA[^177Lu] ([4]; SW-1222 tumor-bearing mice, 3-step PRIT): equal specificity and efficacy
- Uptake ([5]; Blood, 1 h after dosing): 0.122 ± 0.005 % injected Dose/gram
- Uptake ([5]; Blood, 2 h after dosing): 0.034 ± 0.005 % injected Dose/gram
- Uptake ([5]; Blood, 4 h after dosing): 0.014 ± 0.001 % injected Dose/gram
- Uptake ([5]; Blood, 24 h after dosing): 0.004 ± 0.002 % injected Dose/gram
- Uptake ([5]; Blood, 48 h after dosing): 0.003 ± 0 % injected Dose/gram
- Uptake ([5]; Bone, 1 h after dosing): 0.065 ± 0.009 % injected Dose/gram
- Uptake ([5]; Bone, 2 h after dosing): 0.043 ± 0.007 % injected Dose/gram
- Uptake ([5]; Bone, 4 h after dosing): 0.038 ± 0.012 % injected Dose/gram
- Uptake ([5]; Bone, 24 h after dosing): 0.019 ± 0.003 % injected Dose/gram
- Uptake ([5]; Bone, 48 h after dosing): 0.021 ± 0.001 % injected Dose/gram
- Uptake ([5]; Brain, 1 h after dosing): 0.007 ± 0.001 % injected Dose/gram
- Uptake ([5]; Brain, 2 h after dosing): 0.014 ± 0.01 % injected Dose/gram
- Uptake ([5]; Brain, 4 h after dosing): 0.004 ± 0 % injected Dose/gram
- Uptake ([5]; Brain, 24 h after dosing): 0.001 ± 0.001 % injected Dose/gram
- Uptake ([5]; Brain, 48 h after dosing): 0.001 ± 0 % injected Dose/gram
- Biodistribution, comparison of the two probes ([5]; FIG. 17B): comparable biodistribution
- Uptake ([5]; Heart, 1 h after dosing): 0.056 ± 0.006 % injected Dose/gram
- Uptake ([5]; Heart, 2 h after dosing): 0.027 ± 0.004 % injected Dose/gram
- Uptake ([5]; Heart, 4 h after dosing): 0.017 ± 0 % injected Dose/gram
- Uptake ([5]; Heart, 24 h after dosing): 0.008 ± 0.006 % injected Dose/gram
- Uptake ([5]; Heart, 48 h after dosing): 0.009 ± 0 % injected Dose/gram
- Uptake ([5]; Kidneys, 1 h after dosing): 1.021 ± 0.096 % injected Dose/gram
- Uptake ([5]; Kidneys, 2 h after dosing): 1.147 ± 0.184 % injected Dose/gram
- Uptake ([5]; Kidneys, 4 h after dosing): 0.989 ± 0.1 % injected Dose/gram
- Uptake ([5]; Kidneys, 24 h after dosing): 0.66 ± 0.07 % injected Dose/gram
- Uptake ([5]; Kidneys, 48 h after dosing): 0.5 ± 0.05 % injected Dose/gram
- Uptake ([5]; Lg. Intestine, 1 h after dosing): 0.046 ± 0.009 % injected Dose/gram
- Uptake ([5]; Lg. Intestine, 2 h after dosing): 2.577 ± 0.409 % injected Dose/gram
- Uptake ([5]; Lg. Intestine, 4 h after dosing): 2.356 ± 1.032 % injected Dose/gram
- Uptake ([5]; Lg. Intestine, 24 h after dosing): 0.047 ± 0.016 % injected Dose/gram
- Uptake ([5]; Lg. Intestine, 48 h after dosing): 0.035 ± 0.021 % injected Dose/gram
- Uptake ([5]; Liver, 1 h after dosing): 0.119 ± 0.015 % injected Dose/gram
- Uptake ([5]; Liver, 2 h after dosing): 0.12 ± 0.025 % injected Dose/gram
- Uptake ([5]; Liver, 4 h after dosing): 0.088 ± 0.009 % injected Dose/gram
- Uptake ([5]; Liver, 24 h after dosing): 0.063 ± 0.007 % injected Dose/gram
- Uptake ([5]; Liver, 48 h after dosing): 0.052 ± 0.007 % injected Dose/gram
- Uptake ([5]; Lungs, 1 h after dosing): 0.142 ± 0.017 % injected Dose/gram
- Uptake ([5]; Lungs, 2 h after dosing): 0.071 ± 0.01 % injected Dose/gram
- Uptake ([5]; Lungs, 4 h after dosing): 0.041 ± 0.004 % injected Dose/gram
- Uptake ([5]; Lungs, 24 h after dosing): 0.023 ± 0.005 % injected Dose/gram
- Uptake ([5]; Lungs, 48 h after dosing): 0.017 ± 0.001 % injected Dose/gram
- Uptake ([5]; Muscle, 1 h after dosing): 0.04 ± 0.009 % injected Dose/gram
- Uptake ([5]; Muscle, 2 h after dosing): 0.032 ± 0.014 % injected Dose/gram
- Uptake ([5]; Muscle, 4 h after dosing): 0.023 ± 0.013 % injected Dose/gram
- Uptake ([5]; Muscle, 24 h after dosing): 0.008 ± 0.003 % injected Dose/gram
- Uptake ([5]; Muscle, 48 h after dosing): 0.007 ± 0 % injected Dose/gram
- Uptake ([5]; Sm. Intestine, 1 h after dosing): 0.914 ± 0.311 % injected Dose/gram
- Uptake ([5]; Sm. Intestine, 2 h after dosing): 0.958 ± 0.379 % injected Dose/gram
- Uptake ([5]; Sm. Intestine, 4 h after dosing): 0.169 ± 0.258 % injected Dose/gram
- Uptake ([5]; Sm. Intestine, 24 h after dosing): 0.022 ± 0.007 % injected Dose/gram
- Uptake ([5]; Sm. Intestine, 48 h after dosing): 0.016 ± 0.003 % injected Dose/gram
- Uptake ([5]; Spleen, 1 h after dosing): 0.06 ± 0.008 % injected Dose/gram
- Uptake ([5]; Spleen, 2 h after dosing): 0.048 ± 0.021 % injected Dose/gram
- Uptake ([5]; Spleen, 4 h after dosing): 0.032 ± 0.004 % injected Dose/gram
- Uptake ([5]; Spleen, 24 h after dosing): 0.029 ± 0.002 % injected Dose/gram
- Uptake ([5]; Spleen, 48 h after dosing): 0.022 ± 0.001 % injected Dose/gram
- Uptake ([5]; Stomach, 1 h after dosing): 0.734 ± 1.363 % injected Dose/gram
- Uptake ([5]; Stomach, 2 h after dosing): 0.985 ± 0.861 % injected Dose/gram
- Uptake ([5]; Stomach, 4 h after dosing): 0.186 ± 0.256 % injected Dose/gram
- Uptake ([5]; Stomach, 24 h after dosing): 0.02 ± 0.011 % injected Dose/gram
- Uptake ([5]; Stomach, 48 h after dosing): 0.019 ± 0 % injected Dose/gram
- Uptake ([5]; Tail, 1 h after dosing): 0.279 ± 0.079 % injected Dose/gram
- Uptake ([5]; Tail, 2 h after dosing): 0.237 ± 0.128 % injected Dose/gram
- Uptake ([5]; Tail, 4 h after dosing): 0.154 ± 0.102 % injected Dose/gram
- Uptake ([5]; Tail, 24 h after dosing): 0.079 ± 0.026 % injected Dose/gram
- Uptake ([5]; Tail, 48 h after dosing): 0.018 ± 0.016 % injected Dose/gram
- Clearance (time course of activity in vital tissues and blood) ([5]; comparison of the two probes): cleared at similar rates
